Some test systems named below: 786-0 renal; A549 NSCLC; HCT-15 colon; HL-60(TB) leukemia; M14 melanoma; MOLT-4 leukemia; OVCAR-4 ovarian; RXF 393 renal; SF-268 CNS; SF-295 CNS; HCC-2998 colon.
Holding throughout (assay): NCI tumour cell line growth inhibition, 48 h

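How tested: cells in 96-well plates exposed to compound for 48 hours at five concentrations. TGI is the concentration that stops growth completely.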 *1 amine or outer side, *2 acyl side, *3 side chain or, on linkers, in order; H or OH if unused. Where a SMILES comes first, the peptide text is derived from it. [ ]: non-standard residue; d: D form. X32 = C[C@H](N[*:1])C(=O)C(C)(C)C(=O)[*:2]; Hmpa(2S,3S) = CC[C@H](C)[C@H](O)C(=O)O; NMeY = CN[C@@H](Cc1ccc(O)cc1)C(=O)O; NMeL = CN[C@@H](CC(C)C)C(=O)O; NMeV = CN[C@H](C(=O)O)C(C)C; βAla = NCCC(=O)O Bounds are passed on as bounds.

The text below walks through data of PubChem BioAssay (NCI).

Regarding `COc1ccc2nc(-c3ccc(O)cc3)sc2c1`, the TGI in the experiment on 786-0 renal was 29.1 µM; in the experiment with A549 NSCLC, over 100 µM; in the experiment on HCT-15 colon it was 36.5 µM; in the experiment with HL-60(TB) leukemia it was 53.5 µM; in the experiment on M14 melanoma, 47.5 µM; with MOLT-4 leukemia it was 78.3 µM. The TGI in the experiment on OVCAR-4 ovarian was 44.5 µM; with RXF 393 renal it was 40.9 µM; in the experiment with SF-268 CNS it was 49.5 µM; in the experiment with SF-295 CNS, 42.6 µM.

Take `C=CCc1cccc2cc(C(=O)Nc3ccccn3)c(=N)oc12`: the TGI with 786-0 renal, with A549 NSCLC, in the experiment on HCC-2998 colon, in the experiment on HCT-15 colon, in the experiment with HL-60(TB) leukemia and in the experiment with M14 melanoma was over 100 µM in each case. The TGI with MOLT-4 leukemia, with OVCAR-4 ovarian, in the experiment with RXF 393 renal and with SF-268 CNS was over 100 µM in each case.

With `COc1ccc(/C=C2\CCC(C)C3=C2N=c2s/c(=C/c4cccc(Br)c4)c(=O)n2C3c2ccc(OC)c(OC)c2)cc1OC` (stereo unspecified), the TGI in the experiment with 786-0 renal, in the experiment with A549 NSCLC, in the experiment with HCT-15 colon, in the experiment on HL-60(TB) leukemia, in the experiment on M14 melanoma and with MOLT-4 leukemia was over 100 µM in each case. Also, the TGI in the experiment with OVCAR-4 ovarian, in the experiment with RXF 393 renal and with SF-268 CNS was over 100 µM each time.

For the compound `N#Cc1ccc(-n2c3ccccc3c3ccc4c(c32)C(=O)C=CC4=O)cc1`, the TGI is 3.16 µM with 786-0 renal; 38.4 µM in the experiment on A549 NSCLC; 18.3 µM with HCC-2998 colon; 16.1 µM in the experiment with HCT-15 colon; over 100 µM in the experiment with HL-60(TB) leukemia; 7.57 µM with M14 melanoma. For the same compound, the TGI came out at 13 µM with OVCAR-4 ovarian, 5.32 µM with RXF 393 renal, 9.12 µM in the experiment on SF-268 CNS and 28.2 µM in the experiment with SF-295 CNS.

Take `N#C/C(N)=C(\C#N)NC(=O)C(=O)N/C(C#N)=C(\N)C#N`: the TGI in the experiment with 786-0 renal, with A549 NSCLC, in the experiment on HCC-2998 colon, in the experiment with HCT-15 colon, with M14 melanoma and with MOLT-4 leukemia was over 100 µM in each case. Also, the TGI with OVCAR-4 ovarian, in the experiment on RXF 393 renal, in the experiment on SF-268 CNS and in the experiment with SF-295 CNS was over 100 µM in each case.

Consider `O=c1/c(=C/c2ccc(-c3ccc(Cl)cc3Cl)o2)sc2n1[C@@H](c1ccc(Cl)cc1)C=C(c1cc(F)c(Cl)cc1Cl)N=2`, for which the TGI was over 100 µM with 786-0 renal; over 100 µM in the experiment on A549 NSCLC; 56.2 µM with HCC-2998 colon; over 100 µM with HCT-15 colon; over 100 µM with M14 melanoma; 67.9 µM in the experiment on MOLT-4 leukemia. Besides, the TGI in the experiment with OVCAR-4 ovarian, in the experiment on RXF 393 renal, in the experiment with SF-268 CNS and in the experiment with SF-295 CNS was over 100 µM throughout.

Turning to `CC[C@H](C)[C@@H]1OC(=O)CCNC(=O)[C@@H](C)NC(=O)C(C)(C)C(=O)[C@H](C)NC(=O)[C@H](Cc2ccc(OC)cc2)N(C)C(=O)[C@H](C(C)C)N(C)C(=O)CNC(=O)[C@H](CC(C)C)N(C)C(=O)CNC1=O` (cyclo(G[NMeL]G[NMeV][NMeY](Me)[X32][dA][βAla][Hmpa(2S,3S)])), the TGI in the experiment on 786-0 renal is 12.7 µM; with A549 NSCLC it was over 50 µM; with HCC-2998 colon, over 25.1 µM; with HCT-15 colon, over 50 µM; with M14 melanoma, 10.2 µM; in the experiment with MOLT-4 leukemia it was over 26.9 µM. Moreover, the TGI in the experiment on OVCAR-4 ovarian worked out at 3.51 µM; in the experiment on RXF 393 renal, 2 µM; in the experiment on SF-268 CNS, 6.54 µM; with SF-295 CNS it was 24.3 µM.

As to `O=C(Nc1nc(C23CC4CC(CC(C4)C2)C3)cs1)c1cc2ccccc2oc1=O`, the TGI in the experiment on 786-0 renal, in the experiment on A549 NSCLC, in the experiment on HCC-2998 colon, in the experiment on HCT-15 colon, in the experiment on HL-60(TB) leukemia and with MOLT-4 leukemia was over 100 µM each time. The TGI with OVCAR-4 ovarian, in the experiment with RXF 393 renal, with SF-268 CNS and with SF-295 CNS was over 100 µM each time.

`COc1cc(Cc2nccc3cc(OC)c(OC)cc23)c(N=NN(C)C)cc1OC`: the TGI is 18.6 µM in the experiment on 786-0 renal; 77.2 µM in the experiment on A549 NSCLC; 28.9 µM in the experiment with HCC-2998 colon; 19.6 µM in the experiment on HCT-15 colon; 39.3 µM in the experiment with M14 melanoma; 90.3 µM in the experiment on MOLT-4 leukemia. Moreover, the TGI came out at 70.7 µM with OVCAR-4 ovarian, 16.4 µM in the experiment with RXF 393 renal, 77.8 µM in the experiment with SF-268 CNS and 74.9 µM with SF-295 CNS.

On to `CCOC(=O)c1ccc(NCC#CCN2CCCCC2)cc1`, for which the TGI in the experiment on 786-0 renal, in the experiment with A549 NSCLC, with HCT-15 colon, in the experiment with HL-60(TB) leukemia, in the experiment on M14 melanoma and in the experiment on MOLT-4 leukemia was over 100 µM throughout. For the same compound, the TGI with OVCAR-4 ovarian, in the experiment on RXF 393 renal and in the experiment on SF-268 CNS was over 100 µM throughout.

As to `Cc1nc2c(=O)n(C)ncc2[nH]1`, the TGI in the experiment with 786-0 renal, in the experiment with A549 NSCLC, with HCT-15 colon, in the experiment on HL-60(TB) leukemia, in the experiment on M14 melanoma and in the experiment with MOLT-4 leukemia was over 100 µM each time. Besides, the TGI with RXF 393 renal, with SF-268 CNS and in the experiment on SF-295 CNS was over 100 µM in each case.

Consider `CC1(C)OCC=CCO1`, for which the TGI in the experiment with A549 NSCLC, in the experiment with HCC-2998 colon, in the experiment on HL-60(TB) leukemia, in the experiment with M14 melanoma, in the experiment on MOLT-4 leukemia and with OVCAR-4 ovarian was over 100 µM in each case. Further, the TGI in the experiment on RXF 393 renal, with SF-268 CNS and with SF-295 CNS was over 100 µM throughout.

`COc1ccc(C(=O)/C=C/c2cc(O)c(O)c(F)c2F)c(OC)c1`: the TGI in the experiment with 786-0 renal was 41.9 µM; in the experiment with A549 NSCLC, over 100 µM; in the experiment with HCC-2998 colon, 16.8 µM; in the experiment on HCT-15 colon, 36.6 µM; in the experiment on HL-60(TB) leukemia, 25.5 µM; in the experiment with M14 melanoma, over 100 µM. Moreover, the TGI in the experiment with OVCAR-4 ovarian was over 100 µM; in the experiment with RXF 393 renal it was 59.6 µM; in the experiment on SF-268 CNS, over 100 µM; in the experiment on SF-295 CNS, over 100 µM.
